Patent US20110280940A1, “Di-Vanilloyl And Tri-Vanilloyl Derivatives For Use In Anti-Cancer Therapy” (priority 2008, published 2011)

Key:
Aurora kinases = assay: Kinase inhibition profile of DLT11 at 20 μM, Aurora kinases; type: biochemical, human; conditions: 20 μM (FIG. 3)
Description: The kinase inhibition profile of DLT11 at 20 μM was determined using 250 protein kinases. Residual activity values were measured by testing each compound at one concentration in duplicate in each kinase assay. A radiometric protein kinase assay (33 PanQinase®Activity Assay) was used for measuring the kinase activity of 250 protein kinases. All kinase assays were performed in 96-well flashPlates™ from Perkin Elmer (Boston, Mass., USA) in a 50 μl reaction volume. The reaction cocktail was pipetted in 4 steps in the following order: • 10 μl of non-radioactive ATP solution (in H2O) • 25 μl of assay buffer/[γ-33P]-ATP mixture • 5 μl of test sample in 10% DMSO • 10 μl of enzyme/substrate mixture […]
Incorporation of ^33Pi (counting of “cpm”) was determined with a microplate scintillation counter (Microbeta, Wallac).
For each kinase, the median value of the cpm of three wells with complete reaction cocktails, but without kinase, was defined as “low control” (n=3). This value reflects unspecific binding of radioactivity to the plate in the absence of protein kinase but in the presence of the substrate. […] The residual activity (in %) for each compound well was calculated by using the following formula: Res. Activity (%)=100×[(cpm of compound−low control)/(high control−low control)]

WI38 normal fibroblasts = assay: Cellular imaging (quantitative videomicroscopy), global growth ratio, WI38; type: cell-based, human; conditions: 50 μM, 72 h
Source text: As the MTT test is based on the mitochondria functions, we also investigated the effects of the di- and tri-vanilloyl derivatives according to the invention on cell proliferation, migration and morphology by means of a cellular imaging approach (Debeir et al., Cytometry 60:29-40, 2004; Debeir et al., IEEE Trans Med Imaging 24:697-711, 2005) either in the human U373-MG glioma cell line, which is apoptosis-resistant but autophagy-sensitive (Lefranc F et al., Neurosurgery 2008) and in the human A549 non-small-cell-lung cancer cell line, which is apoptosis-resistant and autophagy-resistant (Mijatovic T et al., Neoplasia 2006, May; 8(5):402-12).
Investigations have also been performed in human normal fibroblasts (WS1 and WI38—see Tables 4 and 5). Cellular imaging relied on the use of computer-assisted phase-contrast microscopy making possible to film the behaviour of living cells in culture dishes for several days. […]
The behaviour of the cells, in terms of morphology, growth and death were thus investigated. The effect on the overall growth was measured by counting the number of cells on the first (0 h) and the last image (72 h) of each film. […] The ratio GGRtreated cells/GGRcontrol cells, was further calculated thereby obtaining a value that describes the effect of compounds of the present invention on the overall cell growth. […]

pfGSK3 = pfGSK3 (Plasmodium falciparum, UniProt O77344); assay: Kinase activity assay, pfGSK3; type: biochemical; conditions: 10 μM, 1% DMSO, 15 μM ATP; residual activity
Description: (§1) Buffer A: 10 mM MgCl2, 1 mM EGTA, 1 mM DTT, 25 mM Tris-HCl pH 7.5, 50 μg heparin/ml. Buffer C: 60 mM β-glycerophosphate, 15 mM p-nitrophenylphosphate, 25 mM Mops (pH 7.2), 5 mM EGTA, 15 mM MgCl2, 1 mM DTT, 1 mM sodium vanadate, 1 mM phenyl phosphate.
(§2) Kinase activities were assayed in Buffer A or C, at 30° C., at a final ATP concentration of 15 μM. Blank values were subtracted and activities expressed in % of the maximal activity, i.e. in the absence of inhibitors. Controls were performed with appropriate dilutions of DMSO.

GSK-3 = assay: Kinase activity assay, GSK3; type: biochemical, porcine; conditions: 10 μM, 1% DMSO, 15 μM ATP; residual activity
Description: as §1, §2
GSK-3 (porcine brain, native) was assayed, as described for CDK1 but in Buffer A and using a GSK-3 specific substrate (GS-1: […]pEDEEE) (Seq. ID NO 1) (pS stands for phosphorylated serine) (Primot et al., 2000, Protein Expr. & Purif. 20 (3), 394-404). GS-1 was synthesized by Millegen (Labege, France).

Sequence of pfGSK3 (O77344 1-440): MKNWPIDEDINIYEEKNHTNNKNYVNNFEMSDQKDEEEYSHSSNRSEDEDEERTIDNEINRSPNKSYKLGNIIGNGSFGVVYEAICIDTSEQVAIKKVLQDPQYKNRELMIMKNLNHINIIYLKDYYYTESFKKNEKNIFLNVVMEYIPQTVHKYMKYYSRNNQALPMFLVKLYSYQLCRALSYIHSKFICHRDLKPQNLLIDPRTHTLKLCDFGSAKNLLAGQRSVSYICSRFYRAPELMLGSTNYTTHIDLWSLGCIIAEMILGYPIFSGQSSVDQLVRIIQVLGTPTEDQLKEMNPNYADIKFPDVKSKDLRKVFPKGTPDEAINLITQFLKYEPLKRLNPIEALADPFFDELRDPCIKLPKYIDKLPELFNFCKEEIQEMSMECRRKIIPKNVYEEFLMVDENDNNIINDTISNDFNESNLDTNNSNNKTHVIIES

| inhibition of 2 Aurora kinases (Aurora kinases) | Structure (SMILES) | Global Grow Ratio Treated/Ct (GGR T/Ct) determined by Video Quantitative microscopy, WI38 (WI38 normal fibroblasts) | % ENZYMATIC ACTIVITY, pfGSK3 (pfGSK3) [%] | % ENZYMATIC ACTIVITY, GSK3 (GSK-3) [%] |
| --- | --- | --- | --- | --- |
| more than 80% | COc1cc(C(=O)OCCCCCCOC(=O)c2ccc(O)c(OC)c2)ccc1O [DLT11, Hexane-1,6-diyl bis-(4-hydroxy-3-methoxybenzoate)] | – | – | – |
| – | COc1cc(C(=O)OCCOC(=O)c2ccc(O)c(OC)c2)ccc1O [DLT1, Ethane-1,2-diyl bis-(4-hydroxy-3-methoxybenzoate)] | 0.8 | 92 | 77 |
